# Paper PMC8151276, “An Integrated Approach toward NanoBRET Tracers for Analysis of GPCR Ligand Engagement” (Molecules, 2021)
# Target: T1, HCRTR1 (Homo sapiens, UniProt O43613)
# T1 construct: purchased Promega (in-house HiBiT-GPCR construct library, NanoBRET)
# T1 sequence (O43613 1-425): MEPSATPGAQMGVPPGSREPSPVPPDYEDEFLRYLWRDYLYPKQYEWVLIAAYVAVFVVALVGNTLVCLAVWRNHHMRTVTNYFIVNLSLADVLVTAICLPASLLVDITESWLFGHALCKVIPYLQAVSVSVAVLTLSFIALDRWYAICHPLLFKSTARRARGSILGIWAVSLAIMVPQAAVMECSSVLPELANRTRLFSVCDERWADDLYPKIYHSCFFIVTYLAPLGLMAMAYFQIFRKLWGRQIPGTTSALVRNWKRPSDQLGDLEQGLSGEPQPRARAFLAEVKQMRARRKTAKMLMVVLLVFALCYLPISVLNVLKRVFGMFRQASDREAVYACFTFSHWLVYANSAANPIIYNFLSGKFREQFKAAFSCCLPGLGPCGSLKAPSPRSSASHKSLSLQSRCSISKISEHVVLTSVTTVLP
# Test: NanoBRET screen HiBiT-HCRTR1 in HEK293
# Format: binding
# Experimental: Each tracer candidate was screened across the entire library of HiBiT-GPCR constructs using NanoBRET as the detection modality. As depicted in Figure 4A, the specificity of interactions was evaluated through decrease in BRET due to competitive displacement of a bound tracer by excess parental compound. Each tracer was analyzed for binding to each HiBiT-GPCR fusion in the absence and in the presence of competing parental compound. Briefly, HEK293 cells were transfected with HiBiT-GPCR constructs diluted into promoterless DNA to reduce expression and maximize translocation to the cell surface. Each tracer candidate was then screened at concentrations of 1 μM and 0.1 μM across cells expressing these fusions. Cells were treated for 1.5 h with tracer either alone or in the presence of 20 μM competing parental compound (i.e., control). BRET was measured upon addition of purified LgBiT and subsequent complementation with HiBiT genetically fused to a GPCR. The specificity of interactions was assessed through a decrease in BRET signal due to competitive displacement of the bound tracer. To further gauge the robustness of these interactions, the fold response over the control (i.e., BRETtracer/BRETcontrol) was calculated. We chose a 1.5-fold response, which translates to ≥7-fold signal over noise as the minimal threshold required to score an interaction as positive. […]. Below we highlight the screening results obtained for our exemplary fluorescent tracers based on Clozapine, Amitriptyline and AZD1283.
# HiBiT-GPCR DNA constructs were diluted in 10 mM Tris pH 8 to a final concentration of 0.01 μg/μL, arrayed in 96-well plates and stored at −20 °C. For transfection, HEK293 cells were suspended in Opti-MEM (without phenol red) supplemented with 2% fetal bovine serum (Seradigm) and 100 units/mL penicillin–streptomycin (Gibco) at a final concentration of 220,000 cells/mL and dispensed into white 96-well plates at 90 μL/well. Subsequent transfections and screens were carried using an Agilent Bravo Automated Liquid Handling Platform. First, the 96-well HiBiT DNA arrays were diluted 25-fold in Opti-MEM (without serum or phenol red) to a final concentration of 0.0004 μg/μL and 20 μL of the diluted DNAs were transferred into new 96-well plates. Next, promoterless carrier DNA (1 μg/μL) was diluted 25-fold (0.04 μg/μL) and then dispensed into the diluted arrays at 20 μL/well. Following brief mixing, Viafect transfection reagent (Promega) diluted 16-fold into Opti-MEM was dispensed into the plates at 40 μL/well. After mixing by pipetting, plates were incubated for 10 min on the pipetting station deck. The DNA-transfection reagent complexes were then added to plates containing cells. To facilitate the screen, 10 μL of DNA-transfection reagent complexes were added in duplicates to the top 4 and bottom 4 rows, resulting in two identical 48-well arrays per plate. Plates with transfected cells were incubated for 18–20 h at 37 °C/5% CO2. A screen of each tracer across the entire library using two different concentrations requires duplicate plates of transfected cells. Depending on the number of tracers being screened, transfections can be scaled up using the same ratios. The next day, for each tracer, four 20× screening solutions in tracer dilution buffer (Promega) were prepared: two duplicates at final concentration of 20 μM and two duplicates at a final concentration of 2 μM. A competing unmodified compound was added to one of each duplicate at a final concentration of 400 μM. The four resulting solutions were diluted 4-fold in Opti-MEM without serum or phenol red to generate 5× solutions (5 µM and 0.5 µM tracer +/− 100 μM competing compound). To screen the library, a BioTek MultiFlo FX liquid dispenser was used to dispense 22.5 µL of tracer solution to the top 4 rows and 22.5 µL tracer + competing compound solution to the 4 bottom rows. Plates were briefly mixed on an orbital shaker and incubated for 1.5 h at room temperature. […]
SMILES,"NanoBRET Fold Response (HCRTR1, tracer 0.1μM)","NanoBRET Fold Response (HCRTR1, tracer 1μM)",also measured
CN1CCN(C2=Nc3cc(Cl)ccc3Nc3ccc(CNC(=O)CCOCCOCCOCCOCCNC(=O)CCc4ccc5n4[B-](F)(F)[N+]4=C(c6ccc[nH]6)C=CC4=C5)cc32)CC1 [Clozapine-b-2-NB590],,,"NanoBRET Fold Response (HCRTR1, 0.1μM tracer): 1.04; NanoBRET Fold Response (HCRTR1, 1μM tracer): 1.01"
CN(C)CCC=C1c2ccccc2CCc2ccc(C(=O)NCCNC(=O)CCOCCOCCOCCOCCNC(=O)CCc3ccc4n3[B-](F)(F)[N+]3=C(c5ccc[nH]5)C=CC3=C4)cc21 [Amitriptyline-b-2-NB590],,,"NanoBRET Fold Response (tracer at 0.1μM, listed as amitriptyline-b-2-NB590): 1.08; NanoBRET Fold Response (tracer at 1μM, listed as amitriptyline-b-2-NB590): 0.91"
CCOC(=O)c1cc(C#N)c(N2CCC(C(=O)NS(=O)(=O)Cc3ccccc3/C=C/C(=O)NCCNC(=O)CCc3ccc4n3[B-](F)(F)[N+]3=C(c5ccc[nH]5)C=CC3=C4)CC2)nc1C [AZD1283-1-NB590],,,"NanoBRET Fold Response (HCRTR1, 0.1μM): 1.00; NanoBRET Fold Response (HCRTR1, 1μM): 1.09"
CC(C)N(CC[C@H](c1ccccc1)c1cc(CCNC(=O)CCOCCOCCOCCOCCNC(=O)CCc2ccc3n2[B-](F)(F)[N+]2=C(c4ccc[nH]4)C=CC2=C3)ccc1O)C(C)C [Tolterodine-2-NB590],1.04,1.16,
CC(C)N(CC[C@H](c1ccccc1)c1cc(CCNC(=O)c2ccc(CNC(=O)CCc3ccc4n3[B-](F)(F)[N+]3=C(c5ccc[nH]5)C=CC3=C4)cc2)ccc1O)C(C)C [Tolterodine-BZ-NB590],0.86,1.07,
O=C(CCOCCOCCOCCOCCNC(=O)CCc1ccc2n1[B-](F)(F)[N+]1=C(c3ccc[nH]3)C=CC1=C2)NCCCN1CCN(C2=Nc3ccccc3Oc3ccc(Cl)cc32)CC1 [Loxapine-a-2-NB590],0.93,1.09,
CN1CCN(C2=Nc3cc(Cl)ccc3N(CC(=O)NCCOCCOCCOCCOCCNC(=O)CCc3ccc4n3[B-](F)(F)[N+]3=C(c5ccc[nH]5)C=CC3=C4)c3ccccc32)CC1 [Clozapine-c-2-NB590],,,"NanoBRET Fold Response (HCRTR1, 0.1μM tracer): 0.98; NanoBRET Fold Response (HCRTR1, 1μM tracer): 1.00"
CN(C)CCC=C1c2ccccc2CCc2ccc(C(=O)NCCNC(=O)CCOCCOCCOCCOCCNC(=O)CCc3ccc4n3[B-](F)(F)[N+]3=C(c5ccc[nH]5)C=CC3=C4)cc21 [Amitriptyline-a-2-NB590],,,NanoBRET Fold Response (tracer at 0.1μM): 1.00; NanoBRET Fold Response (tracer at 1μM): 1.00
Cc1nc2n(c(=O)c1CCN1CCC(c3noc4cc(F)ccc34)CC1)CCCC2OC(=O)NCCOCCOCCOCCOCCNC(=O)CCc1ccc2n1[B-](F)(F)[N+]1=C(c3ccc[nH]3)C=CC1=C2 (centres unmarked) [Risperidone-2-NB590],1.01,1.05,
COc1ccc2[nH]c(-c3ccc(CNC(=O)CCOCCOCCOCCOCCNC(=O)CCc4ccc5n4[B-](F)(F)[N+]4=C(c6ccc[nH]6)C=CC4=C5)cc3)c(CCNC(C)=O)c2n1 [AzomelatoninICO9-2-NB590],,,NanoBRET Fold Response (0.1μM tracer): 0.60; NanoBRET Fold Response (1μM tracer): 0.95
O=C(CCc1ccc2n1[B-](F)(F)[N+]1=C(c3ccc[nH]3)C=CC1=C2)NCCOCCOCCNC(=O)OCCOCCN1CCN(C2=Nc3ccccc3Sc3ccccc32)CC1 [Quetiapine-a-2-NB590],0.98,0.77,
O=C(CCOCCOCCOCCOCCNC(=O)CCc1ccc2n1[B-](F)(F)[N+]1=C(c3ccc[nH]3)C=CC1=C2)NCCCN1CCN(C2=Nc3cc(Cl)ccc3Nc3ccccc32)CC1 [Clozapine-a-2-NB590],,,"NanoBRET Fold Response (HCRTR1, 0.1μM tracer): 0.89; NanoBRET Fold Response (HCRTR1, 1μM tracer): 0.98"
N#CN=C(NCCCOc1cccc(CN2CCCCC2)c1)NCCNC(=O)CCOCCOCCOCCOCCNC(=O)CCc1ccc2n1[B-](F)(F)[N+]1=C(c3ccc[nH]3)C=CC1=C2 [Aminopotentidine-2-NB590],0.98,0.95,
O=C(CCc1ccc2n1[B-](F)(F)[N+]1=C(c3ccc[nH]3)C=CC1=C2)NCc1ccc(C(=O)NCCOCCOCCNCC(O)COc2cccc3ccccc23)cc1 (centres unmarked) [Propranolol-3-NB590],,,"NanoBRET Fold Response (HCRTR1, 0.1μM): 1.01; NanoBRET Fold Response (HCRTR1, 1μM): 0.94"
O=C(CCc1ccc2n1[B-](F)(F)[N+]1=C(c3ccc[nH]3)C=CC1=C2)NCc1ccc(C(=O)NCCOCCC(=O)N[C@@H]2CC[C@@]3(O)[C@H]4Cc5ccc(O)c6c5[C@@]3(CCN4CC3CC3)[C@H]2O6)cc1 [Naltrexone-3-NB590],0.98,0.88,
COc1ccccc1N1CCN(CCCCN2C(=O)c3ccc(CNC(=O)CCOCCNC(=O)c4ccc(CNC(=O)CCc5ccc6n5[B-](F)(F)[N+]5=C(c7ccc[nH]7)C=CC5=C6)cc4)cc3C2=O)CC1 [NAN-190-3-NB590],0.98,0.91,
Cc1cc2c(s1)Nc1ccccc1N=C2N1CCN(CCCNC(=O)CCOCCOCCOCCOCCNC(=O)CCc2ccc3n2[B-](F)(F)[N+]2=C(c4ccc[nH]4)C=CC2=C3)CC1 [Olanzapine-a-2-NB590],0.98,0.99,
CCCn1c(=O)c2[nH]c(-c3ccc(OCC(=O)NCCNC(=O)CCOCCNC(=O)c4ccc(CNC(=O)CCc5ccc6n5[B-](F)(F)[N+]5=C(c7ccc[nH]7)C=CC5=C6)cc4)cc3)nc2n(CCC)c1=O [XAC-3-NB590],0.91,0.88,
COc1ccc2c(n1)c(CCNC(C)=O)cn2CCNC(=O)CCc1ccc2n1[B-](F)(F)[N+]1=C(c3ccc[nH]3)C=CC1=C2 [Azamelatonin-1-NB590],,,NanoBRET Fold Response (0.1μM tracer): 0.93; NanoBRET Fold Response (1μM tracer): 0.84
